In publication PMC9099842, “Isolation of Potato Endophytes and Screening of Chaetomium globosum Antimicrobial Genes” (International Journal of Molecular Sciences, 2022):
Ends that are not written are not given here.

How the values were obtained:
[1] = test system: Gram-positive and Gram-negative bacteria; assay type: physicochemical
R. solani = assay type: cell-based, Rhizoctonia solani
F. graminearum = assay type: cell-based, Fusarium graminearum; conditions: 200 μL extracellular peptide per well, 28 °C, 2–4 days, vs PBS
B. cinerea = assay type: cell-based, Botrytis cinerea
X. oryzae pv. oryzae [2] = assay type: cell-based, Xanthomonas oryzae pv. oryzae; conditions: X. oryzae pv. oryzae co-incubated with peptide 2 h at 28 °C; MIC concentration
X. oryzae pv. oryzae [3] = assay type: cell-based, Xanthomonas oryzae pv. oryzae; conditions: 20 μL extracellular peptides on filter paper, 28 °C, 5-7 h, mean ± SD, three independent experiments
[4] = test system: Gram-negative bacteria and Gram-positive bacteria; assay: MIC assay, range over all tested strains; assay type: cell-based; conditions: purified peptide, 96-well plate, 28 °C, 12 h; range over Gram-negative and Gram-positive strains of Table 4
Method: (§1) The indicator bacteria were inoculated in LB liquid medium (OD600 ≈ 0.8–1.0) and then diluted with the indicator bacteria (OD600 ≈ 0.02–0.05). After that, we added 40 μL of diluted indicator bacteria solution to 96-well titer plates. The AMPs were diluted through a series of concentration gradients, and then an equal volume of peptides was added to the above 96-well plate and incubated at 28 °C for 12 h. […] To determine the time-kill assay, the purified antimicrobial peptide concentration was adjusted to 2× MIC concentration, and then added to a 96-well plate in equal volume with the indicator bacteria, with at least 3 wells for each concentration. After mixing the liquid evenly, it was incubated at 28 °C for 2 h, 4 h, 6 h, 8 h, 10 h, 12 h, and 24 h, and then the OD value was obtained at 600 nm.

X. oryzae pv. oryzicola [5] = assay type: cell-based, Xanthomonas oryzae pv. oryzicola; conditions: purified peptide, 96-well plate, LB, 28 °C, 12 h
C. michiganensis [6] = assay: Minimum inhibitory concentration (MIC) assay; assay type: cell-based, Clavibacter michiganensis; conditions: purified peptide, 96-well plate, LB, 28 °C, 12 h
Method: as §1

[7] = test system: four tested strains (C. fangii, X. oryzae pv. oryzicola, X. oryzae pv. oryzae, C. michiganensis); assay type: cell-based; conditions: peptides at their MICs, 28 °C, OD 600 nm; after 12 h of treatment
C. michiganensis [8] = assay: Pathogenicity assay (control effect on tomato plants); assay type: in vivo, Clavibacter michiganensis; conditions: stem acupuncture inoculation of C. michiganensis mixed with equal volume of peptide at 2× MIC, greenhouse, at 7 d; for Disease Index: letters = differences at p < 0.05; for Control Efficacy (%): relative to PBS buffer group
Method: C. michiganensis was cultured to the logarithmic growth phase, then the pathogenic bacteria were mixed with an equal volume of antimicrobial peptides at 2× MIC, and finally tomato plants were inoculated using the stem acupuncture method. The positive control was mixed with an equal volume of polymyxin B and pathogenic bacteria, and the negative control was mixed with an equal volume of PBS buffer and pathogenic bacteria. After inoculation, the tomato plants were cultured under greenhouse conditions, and the disease incidence was observed and recorded. The equation of disease grading criteria, incidence rate, and disease index are found in Supplementary Method S5. […]
Peptide purification procedure
B. subtilis was grown in 300 mL liquid LB medium containing kanamycin (10 mg/L) and incubated at 180 r/min, 37 °C for 72 h. The supernatant was collected by centrifugation at […]
10,000× g for 25 min at 4°C. […]
Pathogenecity assay equation
C. michiganensis disease grading criteria are as follows, grade 0: no wilting or stem necrosis of leaves (or cotyledons); grade 1: mild yellowing or wilting of leaves (or cotyledons); grade 2: moderate wilting or wilting of leaves (or cotyledons) and mild necrosis of stem; Grade 3: severe wilting of leaves (or cotyledons) or severe necrosis of stem; Grade 4: plant death. The formulas for incidence rate, disease index and control efficacy are as follows: Incidence rate

C. michiganensis [9] = assay type: cell-based, Clavibacter michiganensis
[10] = test system: X. campestris pv. Holcicola; assay: Minimum inhibitory concentration (MIC) assay; assay type: cell-based, Xanthomonas campestris pv. Holcicola; conditions: purified peptide, 96-well plate, LB, 28 °C, 12 h
Method: as §1

porcine erythrocytes = conditions: 5× MIC, 37 °C, 1 h, absorbance 385 nm, 0.1% Triton X-100 = 100%, PBS = 0%
[11] = test system: C. michiganensis, C. fangii, X. oryzae pv. oryzae and X. oryzae pv. oryzicola; assay type: physicochemical; conditions: read-out agar diffusion test; for antibacterial activity after heat treatment (thermal stability), 4–75 °C: heated 30 min at 25, 50, 75 °C (4 °C control); for antibacterial activity after heat treatment (thermal stability), 100 °C: heated at 100 °C for 30 min
C. fangii [12] = assay type: cell-based, Clavibacter fangii
X. oryzae pv. oryzae [13] = assay type: cell-based, Xanthomonas oryzae pv. oryzae; conditions: purified peptide, 96-well plate, LB, 28 °C, 12 h
C. fangii [14] = assay: Minimum inhibitory concentration (MIC) assay; assay type: cell-based, Clavibacter fangii; conditions: purified peptide, 96-well plate, LB, 28 °C, 12 h
Method: as §1

X. oryzae pv. oryzicola [15] = assay type: cell-based, Xanthomonas oryzae pv. oryzicola; conditions: 20 μL extracellular peptides on filter paper, 28 °C, 5-7 h, mean ± SD, three independent experiments
C. michiganensis [16] = assay type: cell-based, Clavibacter michiganensis; remark: listed apart in the source
[17] = test system: Xanthomonas campestris pv. Holcicola; assay type: cell-based

Substance | antibacterial activity after UV treatment (UV stability) [1] | inhibition of mycelia growth (in words) (R. solani) | inhibition of mycelia growth (in words) (F. graminearum) | inhibition of mycelia growth (in words) (B. cinerea) | cell membrane damage by SEM (X. oryzae pv. oryzae [2]) | antimicrobial diameter (bacteriostatic spectrum) (X. oryzae pv. oryzae [3]) | bacterial growth in time-kill curve [7] | Incidence (%) (C. michiganensis [8]) | Disease Index (C. michiganensis [8]) | Control Efficacy (%) (C. michiganensis [8]) | cell membrane damage by SEM (C. michiganensis [9]) | antibacterial activity after heat treatment (thermal stability), 4–75 °C [11] | antibacterial activity after heat treatment (thermal stability), 100 °C [11] | antimicrobial diameter (bacteriostatic spectrum) (C. fangii [12]) | antimicrobial diameter (bacteriostatic spectrum) (X. oryzae pv. oryzicola [15]) | antimicrobial diameter (bacteriostatic spectrum) (C. michiganensis [16]) | inhibition of bacterial growth (in words) [17] | further results
LAVHHLHSIRGRHHSCTIAQTQANHRHNSYQPNNSSCLAKETDLPTTRSTPATTSSTAPARKSPPASPAPTRQRLCPSPPRGPVSSRHPRRRGQARGRTRAAGVRRTKGYGGKCV [CgR2150, 115-residue antimicrobial peptide from C. globosum cDNA library, expressed and secreted by B. subtilis SCK6] | stable bacteriostatic activity | significantly inhibit the mycelia growth | significantly inhibit the mycelia growth | significantly inhibit the mycelia growth | significantly shrunken and morphologically abnormal | 1.39 ± 0.036 cm | hardly grew | 13.33 c % | 5.83 | 92.56 b % | severely damaged, with obvious gaps and ruptures | obvious antibacterial activity | lost their activity | 1.21 ± 0.037 cm | 1.29 ± 0.034 cm | 1.19 ± 0.033 cm | significantly inhibit the growth | MIC, range over the five tested bacteria [4]: 10 to 25 µg/mL; MIC (X. oryzae pv. oryzicola [5]): 10 µg/mL; MIC (C. michiganensis [6]): 18 µg/mL; MIC [10]: 25 µg/mL; hemolytic activity (porcine erythrocytes): 0.32%; MIC (X. oryzae pv. oryzae [13]): 10 µg/mL; MIC (C. fangii [14]): 15 µg/mL
LAVPNFEPPTRTTCPAPTSPGNPCGPPPPASQTRRPPFHPTSPLRR (cysteines drawn unpaired) [CgR3101] | stable bacteriostatic activity | significantly inhibit the mycelia growth | significantly inhibit the mycelia growth | significantly inhibit the mycelia growth | significantly shrunken and morphologically abnormal | 1.19 ± 0.036 cm | hardly grew | 16.67 b % | 7.50 b | 90.43 c % | severely damaged, with obvious gaps and ruptures | obvious antibacterial activity | lost their activity | 1.15 ± 0.029 cm | 1.26 ± 0.024 cm | 1.04 ± 0.033 cm | significantly inhibit the growth | –
Polymyxin B [reference compound] | – | – | – | – | – | – | – | 10.00 d % | 3.33 c | 95.75 a % | – | – | – | – | – | – | – | –
